Data reported in patent publication US11246847B2, “Anticancer drug effect enhancer” (Delta-Fly Pharma, Inc., priority 2019, dated 2022).

Experiments:
stage IVB ovarian cancer = settings: from July 2018, bicarbonate continued, before endoxan
[1] = Change in pH of urine after citrate salt or sodium bicarbonate in a person with acidic urine (Example 1)
Procedure: A citrate salt was administered to a person with acidic urine in accordance with the following dosage regimen, and a change in pH value of urine was then measured over time.
(1) A potassium citrate•sodium citrate hydrate 500 mg tablet (Uralyt Tablet (manufactured by Nippon Chemiphar Co., Ltd.)) is administered at 6 tablets (3 g) once a day after a meal.

[2] = 3 g once a day, compared to potassium citrate•sodium citrate hydrate

SMILES: O=C([O-])O.[Na+] [sodium salt of hydrogencarbonate ions, sodium bicarbonate]
- value of CA125 (stage IVB ovarian cancer): 199
- side effect observed ([1]; 3 g once a day after a meal): the patient often burped
- rate of alkalization of urine [1, 2]: higher
- rate of urine turning acidic again [1, 2]: higher
- time during which the urine was kept alkaline [1, 2]: shorter
- pH of urine / ability to keep the urine alkaline ([1]; person with acidic urine, 6 tablets (3 g) orally once a day after a meal): poorer ability to keep the urine alkaline
